Columns and labels:
[1] = Comparison of clearance rates with an iothalamate reference standard (FIG. 3); assay type: in vivo, Spraque-Dawley rats; conditions: Sprague-Dawley rats; iothalamate five rats, compound 18 six rats; FIG. 3 in milliliters per minute
Method: FIG. 3 provides a bar graph comparison of the clearance rates of an iothalamate reference standard and compound 18. Spraque-Dawley rats were again used as animal models for studying the clearance rates. Iothalamate clearance rates were measured in five rats, whereas clearance rates for compound 18 were measured in six rats. The clearance rates are expressed in FIG. 3 in terms of milliliters per minute.

[2] = Clearance curve of compound 18 in rats, monitored by fluorescence (RFUs) over time (FIG. 2); assay type: in vivo; conditions: Sprague-Dawley rats, i.v. 1 ml of 2 mmol solution in PBS, approx. 6 μmol/kg, four rats, fluorescence (RFU)
Method: Four Sprague-Dawley rats were used to obtain the experimental results depicted in FIG. 2, with each of the four lines of the graph representing data obtained from an individual rat. The rats were injected intravenously with 1 ml of a 2 mmol solution of compound 18 in phosphate-buffered saline CBS), giving a final concentration of compound 18 in each animal of approximately 6 μmol/kg. The presence of compound 18 in each of the animals was monitored over time and measured in Relative Fluorescence Units (RFUs). The clearance curve in FIG. 2 provides RFUs over time for each of the four rats. […] The clearance rate then began to level, with complete clearance of compound 18 occurring at approximately 6000 minutes.

[3] = Excitation and emission wavelengths; assay type: physicochemical
Source text: Compound 18, above, is a longer wavelength compound (excitation ˜500 nm, emission 600 nm orange). To achieve the red shift in both excitation and emission wavelengths, electron donation into the ring was increased by alkyl substitution on the pyrazine ring nitrogens. The synthetic strategy for these longer wavelength analogues involves functionalizing the carboxyls first through amide chemistry described above followed by reductive amination of the pyrazine amino groups. Thus the synthesis of compound 18, above, is presented below. MP-3064 was coupled with Boc-ethylenediamine using the EDC method to afford MP-3183. This material was then converted to MP-3216 by reductive amination using Boc-2-aminoacetaldehyde and sodium triacetoxyborohydride. MP-3216 was purified by flash chromatography and deprotected with TFA to afford the corresponding tetramine salt. This material was then acylated with NHS-m-dPEG12 and purified by HPLC to afford compound 18: […]

Compound | clearance rate, compound 18 compared with iothalamate [1] | time of complete clearance [2] | excitation wavelength [3] | emission wavelength ([3]; orange)
CNC(=O)c1c(I)c(NC(C)=O)c(I)c(C(=O)O)c1I [iothalamate, reference compound] | virtually the same | – | – | –
COCCOCCOCCOCCOCCOCCOCCOCCOCCOCCOCCOCCC(=O)NCCNC(=O)c1nc(NCCNC(=O)CCOCCOCCOCCOCCOCCOCCOCCOCCOCCOCCOCCOC)c(C(=O)NCCNC(=O)CCOCCOCCOCCOCCOCCOCCOCCOCCOCCOCCOCCOC)nc1NCCNC(=O)CCOCCOCCOCCOCCOCCOCCOCCOCCOCCOCCOCCOC [compound 18, 3,6-Bis(38-oxo-2,5,8,11,14,17,20,23,26,29,32,35-dodecaoxa-39-azahentetracontan-41-ylamino)-N^2,N^5-bis(38-oxo-2,5,8,11,14,17,20,23,26,29,32,35-dodecaoxa-39-azahentetracontan-41-yl)pyrazine-2,5-dicarboxamide] | virtually the same | approximately 6000 minutes | ~500 nm | 600 nm

Reference: US8481734B2, “Pyrazine derivatives and uses thereof, including in medical imaging and visualization applications” (Medibeacon Development LLC, priority 2008, dated 2013)
